The text below walks through data of US8362000B2, “Azetidinyl diamides as monoacylglycerol lipase inhibitors” (Janssen Pharmaceutica NV, priority 2009, dated 2013).

The target in one assay is T1, mutant MGL (Homo sapiens, UniProt Q99685, L169S/L176S).
T1 sequence (Q99685 1-303 L169S/L176S): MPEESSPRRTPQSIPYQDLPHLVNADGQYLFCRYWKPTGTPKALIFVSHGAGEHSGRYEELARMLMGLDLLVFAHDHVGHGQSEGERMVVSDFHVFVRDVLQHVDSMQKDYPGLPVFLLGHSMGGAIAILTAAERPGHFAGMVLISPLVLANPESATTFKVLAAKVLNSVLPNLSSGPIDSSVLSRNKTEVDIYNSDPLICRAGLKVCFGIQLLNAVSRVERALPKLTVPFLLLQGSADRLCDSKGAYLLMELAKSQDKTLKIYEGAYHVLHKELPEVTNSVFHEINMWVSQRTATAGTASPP
The assay can be described thus: MGL ThermoFluor assay - mutant. The format is binding. Background: In DSF a fluorescence change marks the thermal transition of the protein.

The target in assay [1] is T2, purified wild type MGL (wt-MGLL 6H-11-313) (Homo sapiens, UniProt Q99685).
T2 sequence (Q99685 1-303): T1 sequence (Q99685 1-303 L169S/L176S) with S169L, S176L

[2] abbreviates: ThermoFluor, compound concentration measured by qNMR, read-out: MGL mutant ThermoFluor qKd (using qNMR conc.).
The mark [3] stands for this setting: ThermoFluor, compound concentration measured by qNMR, read-out: MGL mutant ThermoFluor qKd (μM) (using qNMR conc.).
Setting [4] is: ThermoFluor concentration-response, read-out: MGL mutant ThermoFluor Kd.
[5] abbreviates: ThermoFluor thermal stability binding assay, read-out: MGL mutant ThermoFluor Kd.
Where [6] appears, read: compound concentration measured by qNMR, read-out: MGL mutant ThermoFluor qKd (using qNMR conc.).

Substitutions are numbered along the chain they refer to. Read-outs that look alike come from different tables or passages of the source. Bounds are passed on as bounds.

As a reminder, the IC50 is the concentration that gives 50% inhibition. Low readings indicate inhibition by little substance, high ones a need for much substance.

For the compound `O=C(c1cc2ccc(Br)cc2[nH]1)N1CC(N2CCN(C(=O)c3nccs3)CC2)C1` [Cpd 792], the Kd on mutant MGL (setting [2]) was found to be 0.973 µM. The compound also showed an IC50 in assay [1] of 1460 nM.

With `O=C(c1cnc2ccn(-c3ccc(F)cc3)c2c1)N1CC(N2CCN(C(=O)c3nccs3)CC2)C1` [Cpd 1277], the Kd on mutant MGL (setting [3]) was determined as 2.72 µM. This compound showed an IC50 in assay [1] of 1830 nM.

As to `O=C(c1ccc2[nH]c(C3CCCCC3)nc2c1)N1CC(N2CCN(C(=O)c3nccs3)CC2)C1` [Cpd 735], on mutant MGL (setting [4]), the Kd turned out to be 0.16 µM. For the same compound, inhibition in assay [1] was half-maximal at 268 nM (IC50).

Consider `O=C(c1ccc(-c2ccccc2)cc1)N1CC(N2CCN(C(=O)C3CC3(F)F)CC2)C1` (centres unmarked) [Cpd 1256], for which the Kd at mutant MGL (setting [5]) amounted to 0.393 µM. The compound also gave an IC50 in assay [1] of 808 nM.

Regarding `Cc1c(C(=O)N2CC(N3CCN(C(=O)c4nccs4)CC3)C2)oc2c(F)cccc12` [Cpd 794], the Kd at mutant MGL (setting [4]) was 2.11 µM. In addition, in assay [1], the IC50 is 1470 nM.

Consider `O=C(c1cc2cc(C(F)(F)F)ccc2[nH]1)N1CCN(C2CN(C(=O)c3nccs3)C2)CC1` [Cpd 747], for which the Kd on mutant MGL (setting [4]) came to 0.111 µM. The IC50 in assay [1] came to 377 nM.

`COc1cccc2c(C)c(C(=O)N3CC(N4CCN(C(=O)c5cscn5)CC4)C3)[nH]c12` [Cpd 840]: the Kd on mutant MGL (setting [4]) came out at 2 µM. In assay [1], this compound showed an IC50 of 5160 nM.

With `CC(C)n1c(C(F)(F)F)nc2cc(C(=O)N3CC(N4CCN(C(=O)c5nccs5)CC4)C3)ccc21` [Cpd 740], at mutant MGL (setting [4]), the Kd came to 0.035 µM. Besides, the half-maximal inhibitory concentration (IC50) in assay [1] was found to be 294 nM.

`O=C(c1nc2cc(-c3ccc(F)cc3)ccc2[nH]1)N1CC(N2CCN(C(=O)c3nccs3)CC2)C1` [Cpd 1294, 5-(4-Fluorophenyl)-2-({3-[4-(1,3-thiazol-2-ylcarbon-yl)piperazin-1-yl]azetidin-1-yl}carbonyl)-1H-benzimidazole]: the Kd on mutant MGL (setting [3]) turned out to be 4.41 µM. In addition, the IC50 in assay [1] stood at 3230 nM.

Consider `O=C(c1ccc2c(c1)[nH]c(=O)n2CC(F)(F)F)N1CC(N2CCN(C(=O)c3cscn3)CC2)C1` [Cpd 943], for which, at mutant MGL (setting [4]), the Kd turned out to be 1.05 µM. 10400 nM corresponded to half-maximal inhibition in assay [1] (IC50).

`O=C(c1ccc2c(c1)[nH]c(=O)n2-c1ccccc1)N1CC(N2CCN(C(=O)c3nccs3)CC2)C1` [Cpd 933, 1-Phenyl-5-({3-[4-(1,3-thiazol-2-ylcarbonyl)piperazin-1-yl]azetidin-1-yl}carbonyl)-1,3-dihydro-2H-benzimidazol-2-one]: on mutant MGL (setting [4]), the Kd came out at 0.034 µM. The IC50 in assay [1] came out at 191 nM.

With `O=C(c1cc(-c2cccc(C(F)(F)F)c2)cs1)N1CC(N2CCN(C(=O)c3nccs3)CC2)C1` [Cpd 1321], the Kd on mutant MGL (setting [3]) came out at 0.067 µM. The compound further yielded a half-inhibitory concentration (IC50) in assay [1] below 5 nM.

Regarding `Cn1cc(C(=O)N2CC(N3CCN(C(=O)c4nccs4)CC3)C2)c2ccccc21` [Cpd 838], the Kd at mutant MGL (setting [4]) turned out to be 0.978 µM. In assay [1], this compound gave an IC50 of 5110 nM.

On to `O=C(c1cscn1)N1CCN(C2CN(C(=O)c3cc4cc(Cl)ccc4o3)C2)CC1` [Cpd 1444], for which the Kd on mutant MGL (setting [5]) is above 31 µM. Besides, the IC50 in assay [1] was above 16700 nM.

Regarding `O=C(c1ccc2c(c1)ncn2CCC(F)(F)F)N1CC(N2CCN(C(=O)c3cscn3)CC2)C1` [Cpd 851], the Kd on mutant MGL (setting [6]) was 0.883 µM. Further, in assay [1], the IC50 was 7870 nM.

As for `O=C(c1nccs1)N1CCN(C2CN(C(=O)c3nn(-c4ccc(Cl)cc4Cl)c4c3CCC/C4=C\c3ccc(Cl)cc3)C2)CC1` [Cpd 1018], the Kd at mutant MGL (setting [4]) was 0.207 µM. 101 nM corresponded to half-maximal inhibition in assay [1] (IC50).

Regarding `O=C(c1cccc(-c2cccc(F)c2)c1)N1CC(N2CCN(C(=O)c3cscn3)CC2)C1` [Cpd 1228], the Kd at mutant MGL (setting [4]) came to 1.42 µM. The same compound gave an IC50 in assay [1] of 295 nM.

Turning to `Cn1cc(-c2cccc(C(F)(F)F)c2)c2ccc(C(=O)N3CC(N4CCN(C(=O)c5ccccc5)CC4)C3)cc21` [Cpd 593], the Kd at mutant MGL (setting [4]) stood at 0.01 µM. This compound came in with an IC50 in assay [1] of 311 nM.

For `COc1cc(-n2ccc3cc(C(=O)N4CC(N5CCN(C(=O)c6nccs6)CC5)C4)ccc32)ccc1C#N` [Cpd 1115], at mutant MGL (setting [3]), the Kd came out at 0.005 µM. For the same compound, the 50% inhibitory concentration (IC50) in assay [1] stood at 16 nM.

For `O=C(c1cscn1)N1CCN(C2CN(C(=O)c3cc(-c4ccccc4)n(-c4ccccc4)n3)C2)CC1` [Cpd 1261], the Kd at mutant MGL (setting [5]) was determined as 0.831 µM. This compound also came in with an IC50 in assay [1] of 932 nM.

Regarding `Cc1nc2cc(C(=O)N3CC(N4CCN(C(=O)c5nccs5)CC4)C3)ccc2n1CC(F)(F)F` [Cpd 789], at mutant MGL (setting [6]), the Kd came to 0.043 µM. This compound also displayed an IC50 in assay [1] of 1370 nM.

`O=C(c1nccs1)N1CCN(C2CN(C(=O)c3cccc4oc(-c5ccc(F)cc5)nc34)C2)CC1` [Cpd 1257]: the Kd at mutant MGL (setting [5]) worked out at 0.009 µM. This compound also gave an IC50 in assay [1] of 827 nM.

With `O=C(c1ccc(Oc2cccnc2)cc1)N1CC(N2CCN(C(=O)c3nccs3)CC2)C1` [Cpd 734], on mutant MGL (setting [4]), the Kd was found to be 1.26 µM. This compound also yielded an IC50 in assay [1] of 256 nM.

For `O=C(c1ccc(-c2ccccc2)cc1)N1CC(N2CCN(C(=O)c3nccs3)CC2C(F)(F)F)C1` (centres unmarked) [Cpd 1306, 1-[1-(Biphenyl-4-ylcarbonyl)azetidin-3-yl]-4-(1,3-thiazol-2-ylcarbonyl)-2-(trifluoromethyl)piperazine], on mutant MGL (setting [3]), the Kd is 12.2 µM. The IC50 in assay [1] worked out at 8150 nM.

`O=C(c1ccc(-c2ccccc2)cc1)N1CCN(C2CN(C(=O)c3cscn3)C2)C2(CC2)C1` [Cpd 1286]: the Kd on mutant MGL (setting [5]) worked out at 0.032 µM. Moreover, the IC50 in assay [1] came to 2420 nM.

Consider `Cc1ccnc(-n2ccc3cc(C(=O)N4CC(N5CCN(C(=O)c6cscn6)CC5)C4)ccc32)c1` [Cpd 1197, 1-(4-Methylpyridin-2-yl)-5-({3-[4-(1,3-thiazol-4-ylcarbonyl)piperazin-1-yl]azetidin-1-yl}carbonyl)-1H-indole], for which, at mutant MGL (setting [2]), the Kd turned out to be 0.065 µM. Further, in assay [1], the IC50 turned out to be 133 nM.

In the case of `O=C(c1ccccc1)N1CCN(C2CN(C(=O)c3sc4cc(F)ccc4c3C3CCC3)C2)CC1` [Cpd 513], on mutant MGL (setting [4]), the Kd was determined as 0.009 µM. The same compound yielded an IC50 in assay [1] of 371 nM.

As for `O=C(c1ccccc1)N1CCN(C2CN(C(=O)c3ccc(Oc4cccnc4)cc3)C2)CC1` [Cpd 527], the Kd at mutant MGL (setting [4]) was 10 µM. Further, in assay [1], half-maximal inhibition (IC50) was put at 8570 nM.

As to `O=C(c1ccc[nH]1)N1CCN(C2CN(C(=O)c3cc4ccc(C(F)(F)F)nc4o3)C2)CC1` [Cpd 1446], on mutant MGL (setting [5]), the Kd worked out at 62.5 µM. This compound also yielded an IC50 in assay [1] above 16700 nM.

`O=C(c1ccccc1)N1CCN(C2CN(C(=O)c3ccc4c(cnn4-c4cccc(OC(F)(F)F)c4)c3)C2)CC1` [Cpd 576, 5-({3-[4-(Phenylcarbonyl)piperazin-1-yl]azetidin-1-yl}carbonyl)-1-[3-(trifluoromethoxy)phenyl]-1H-indazole]: the Kd at mutant MGL (setting [3]) came out at 0.088 µM. In addition, in assay [1], the IC50 amounted to 51 nM.

Turning to `O=C(c1ccccc1)N1CCN(C2CN(C(=O)c3ccc(CS(=O)(=O)c4cccc(C(F)(F)F)c4)cc3)C2)CC1` [Cpd 564], at mutant MGL (setting [4]), the Kd is 10 µM. Moreover, half-maximal inhibition in assay [1] (IC50) was put at 5400 nM.

Turning to `Cc1nc2cc(C(=O)N3CC(N4CCN(C(=O)c5cscn5)CC4)C3)ccc2n1C1CCCCC1` [Cpd 832], the Kd on mutant MGL (setting [5]) amounted to 0.059 µM. In assay [1], this compound had an IC50 of 4240 nM.

With `N#Cc1ccc(N2CCC(C(=O)N3CC(N4CCN(C(=O)c5nccs5)CC4)C3)CC2)cc1` [Cpd 646], the Kd on mutant MGL (setting [4]) is 1.61 µM. Further, the IC50 in assay [1] stood at 7160 nM.

Consider `CC(c1ccccc1)n1cc2cc(C(=O)N3CC(N4CCN(C(=O)c5nccs5)CC4)C3)ccc2n1` (centres unmarked) [Cpd 1040, 2-(1-Phenylethyl)-5-({3-[4-(1,3-thiazol-2-ylcarbonyl)piperazin-1-yl]azetidin-1-yl}carbonyl)-2H-indazole], for which the Kd on mutant MGL (setting [6]) came to 0.014 µM. Also, in assay [1], the IC50 turned out to be 25 nM.

As to `O=C(c1ccccc1)N1CCN(C2CN(C(=O)c3cc(-c4cccc(F)c4)c4[nH]ccc4c3)C2)CC1` [Cpd 600], the Kd on mutant MGL (setting [3]) stood at 1.97 µM. In assay [1], this compound returned an IC50 of 1150 nM.

Take `O=C(c1sc2cc(C(F)(F)F)ccc2c1Cl)N1CC(N2CCN(C(=O)C(F)(F)F)CC2)C1` [Cpd 656, 1-(1-{[3-Chloro-6-(trifluoromethyl)-1-benzothiophen-2-yl]carbonyl}azetidin-3-yl)-4-(trifluoroacetyl)piperazine]: the Kd at mutant MGL (setting [2]) worked out at 0.101 µM. The compound also displayed an IC50 in assay [1] of 8 nM.

On to `O=C(c1ccc2ccn(Cc3ccncc3)c2c1)N1CC(N2CCN(C(=O)c3nccs3)CC2)C1` [Cpd 1047], for which the Kd at mutant MGL (setting [6]) came to 0.471 µM. Further, the IC50 in assay [1] amounted to 4630 nM.

With `Cc1cc(-n2ccc3cc(C(=O)N4CC(N5CCN(C(=O)c6ccccc6)CC5)C4)ccc32)ccn1` [Cpd 630, 1-(2-Methylpyridin-4-yl)-5-({3-[4-(phenylcarbonyl)piperazin-1-yl]azetidin-1-yl}carbonyl)-1H-indole], the Kd on mutant MGL (setting [2]) came to 0.195 µM. Besides, inhibition in assay [1] was half-maximal at 714 nM (IC50).

Take `O=C(c1nccs1)N1CC(N2CCN(C(=O)c3ccc(-c4ccccc4)cc3)C(Cc3ccccc3)C2)C1` (centres unmarked) [Cpd 1266, 2-Benzyl-1-(biphenyl-4-ylcarbonyl)-4-[1-(1,3-thiazol-2-ylcarbonyl)azetidin-3-yl]piperazine]: the Kd at mutant MGL (setting [4]) amounted to 0.032 µM. The compound also returned an IC50 in assay [1] of 1080 nM.

In the case of `O=C(c1cccc(-c2ccc(C(F)(F)F)cc2)c1)N1CC(N2CCN(C(=O)c3cscn3)CC2)C1` [Cpd 1278], on mutant MGL (setting [4]), the Kd is 5.19 µM. Further, the IC50 in assay [1] was found to be 1860 nM.
